# Laboratory results taken from patent publication US20250051346A1 (priority 2021, published 2025).
# Assays:
# mice = details: mouse, in vivo
# 5HT2A sensor [1] = assay type: cell-based
# 5HT2A sensor [2] = assay type: cell-based; remark: listed apart in the source
# Throughout, for activation of the 5HT2A sensor assay: test concentration or dose not given here.
# Throughout, for competition with 5-HT at 5HT2A in the sensor assay: test concentration or dose not given here.
compound,measurement,setting,value
5-MeO-DMT [Compound 5-MeO-DMT],head-twitch response (HTR),mice,"robust, dose-dependent head-twitch response"
same,activation of the 5HT2A sensor assay,5HT2A sensor [1],activate the 5HT2A sensor assay in agonist mode
O=C(c1ccc(F)cc1)C1CCN(CCn2c(=O)[nH]c3ccccc3c2=O)CC1 [Ketanserin],competition with 5-HT at 5HT2A in the sensor assay,5HT2A sensor [2],can compete with 5HT binding to 5HT2A
same,activation of the 5HT2A sensor assay,5HT2A sensor [1],do not activate the 5HT2A sensor assay in agonist mode
